{"source": "patent US12077503B2", "about": "“Substituted cyclic amides and their use as herbicides” (FMC CORPORATION, priority 2015, dated 2024)", "format_in_all_cases": "in vivo", "key": {"[1]": {"tested_on": "ragweed (common ragweed, Ambrosia elatior)", "assay": "Test A preemergence", "settings": "for Plant response rating, Ragweed: 125 g ai/ha", "in_short": "(§1)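 Treatment is preemergence as a directed soil spray after planting, or postemergence at the one- to two-leaf stage, with test chemical in a non-phytotoxic solvent mixture plus surfactant. Plants stay in the greenhouse about 10 d before visual injury scoring on a 0 to 100 scale versus untreated controls.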"}, "Kochia (Kochia scoparia) [2]": {"tested_on": "Kochia (Kochia scoparia)", "assay": "Test A preemergence", "settings": "for Plant response rating, Kochia: 125 g ai/ha; for Kochia plant response rating (0 to 100 scale, 0 is no effect, 100 is complete control): 500 g ai/ha, visual injury approx. 10 d", "in_short": "as §1"}, "[3]": {"tested_on": "pigweed (Amaranthus retroflexus)", "assay": "Test A preemergence", "settings": "for Plant response rating, Pigweed: 125 g ai/ha; for Pigweed plant response rating (0 to 100 scale, 0 is no effect, 100 is complete control): 500 g ai/ha, visual injury approx. 10 d"}, "[4]": {"tested_on": "ryegrass, Italian (Italian ryegrass, Lolium multiflorum)", "assay": "Test A preemergence", "settings": "for Plant response rating, Ryegrass, Italian: 125 g ai/ha; for Ryegrass, Italian plant response rating (0 to 100 scale, 0 is no effect, 100 is complete control): 500 g ai/ha, visual injury approx. 10 d", "in_short": "as §1"}, "[5]": {"tested_on": "giant foxtail (Setaria faberii)", "assay": "Test A preemergence", "settings": "for Plant response rating, Foxtail, Giant: 125 g ai/ha; for Foxtail, Giant plant response rating (0 to 100 scale, 0 is no effect, 100 is complete control): 500 g ai/ha, visual injury approx. 10 d", "in_short": "as §1"}, "[6]": {"tested_on": "barnyardgrass (Echinochloa crus-galli)", "assay": "Test A preemergence", "settings": "for Plant response rating, Barnyardgrass: 125 g ai/ha; for Barnyardgrass plant response rating (0 to 100 scale, 0 is no effect, 100 is complete control): 500 g ai/ha, visual injury approx. 10 d", "in_short": "as §1"}, "corn (Zea mays)": {"tested_on": "corn (Zea mays)", "assay": "Test A postemergence", "in_short": "as §1"}, "[7]": {"tested_on": "ragweed (common ragweed, Ambrosia elatior)", "assay": "Test A postemergence", "in_short": "as §1"}, "[8]": {"tested_on": "Galium (catchweed bedstraw, Galium aparine)", "assay": "Test A postemergence", "in_short": "as §1"}, "Kochia (Kochia scoparia) [9]": {"tested_on": "Kochia (Kochia scoparia)", "assay": "Test A postemergence", "in_short": "as §1"}, "[10]": {"tested_on": "pigweed (Amaranthus retroflexus)", "assay": "Test A postemergence", "in_short": "as §1"}, "[11]": {"tested_on": "ryegrass, Italian (Italian ryegrass, Lolium multiflorum)", "assay": "Test A postemergence", "in_short": "as §1"}, "[12]": {"tested_on": "giant foxtail (Setaria faberii)", "assay": "Test A postemergence", "in_short": "as §1"}, "[13]": {"tested_on": "blackgrass (Alopecurus myosuroides)", "assay": "Test A postemergence", "in_short": "as §1"}, "[14]": {"tested_on": "barnyardgrass (Echinochloa crus-galli)", "assay": "Test A postemergence", "in_short": "as §1"}, "[15]": {"tested_on": "wheat (Triticum aestivum)", "assay": "Test A postemergence", "in_short": "as §1"}, "[16]": {"tested_on": "sedge, umbrella (small-flower umbrella sedge, Cyperus difformis)", "assay": "Test B flooded paddy test", "settings": "Flood, 250 g ai/ha; 0 to 100 scale where 0 is no effect and 100 is complete control; 13 to 15 d", "in_short": "(§2)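 Percent control, visually estimated after 13–15 d in the greenhouse on a 0–100 basis, compares treated pots with untreated ones; compound was put into paddy water 3 cm above the soil when plants had two leaves.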"}, "[17]": {"tested_on": "barnyardgrass (Echinochloa crus-galli)", "assay": "Test B flooded paddy test", "settings": "Flood, 250 g ai/ha; 0 to 100 scale where 0 is no effect and 100 is complete control; 13 to 15 d", "in_short": "as §2"}, "rice (Oryra sativa)": {"tested_on": "rice (Oryra sativa)", "assay": "Test B flooded paddy test", "settings": "Flood, 250 g ai/ha; 0 to 100 scale where 0 is no effect and 100 is complete control; 13 to 15 d", "in_short": "as §2"}, "[18]": {"tested_on": "ducksalad (Heteranthera limosa)", "assay": "Test B flooded paddy test", "settings": "Flood, 250 g ai/ha; 0 to 100 scale where 0 is no effect and 100 is complete control; 13 to 15 d", "in_short": "as §2"}, "[19]": {"settings": "Preemergence, visual injury after approximately 10 d, 0 to 100 scale where 0 is no effect and 100 is complete control"}, "[20]": {"settings": "125 g ai/ha, postemergence, visual rating after approx. 10 d, 0 to 100 scale (0 no effect, 100 complete control)"}, "[21]": {"settings": "Postemergence, 500 g ai/ha, 0 to 100 scale where 0 is no effect and 100 is complete control"}, "[22]": {"settings": "preemergence, 0 to 100 scale (0 no effect, 100 complete control)"}, "[23]": {"settings": "125 g ai/ha, postemergence, visual injury rating on 0 to 100 scale (0 no effect, 100 complete control), approx. 10 d"}, "[24]": {"settings": "500 g ai/ha, postemergence, 0 to 100 scale, 0 no effect, 100 complete control"}}, "data": [{"smiles": "O=C1NCC(c2cccc(C(F)(F)F)c2F)C1C(=O)Nc1ccccc1F", "note": "(centres unmarked) [Compound 590]", "values": [{"measurement": "Plant response rating, Ragweed", "setting": "[1]; [19]", "result": 0}, {"measurement": "Plant response rating, Kochia", "setting": "Kochia (Kochia scoparia) [2]; [19]", "result": 0}, {"measurement": "Kochia plant response rating (0 to 100 scale, 0 is no effect, 100 is complete control)", "setting": "Kochia (Kochia scoparia) [2]; Preemergence", "result": 20}, {"measurement": "Plant response rating, Pigweed", "setting": "[3]; [19]", "result": 0}, {"measurement": "Pigweed plant response rating (0 to 100 scale, 0 is no effect, 100 is complete control)", "setting": "[3]; Preemergence", "result": 0}, {"measurement": "Plant response rating, Ryegrass, Italian", "setting": "[4]; [19]", "result": 0}, {"measurement": "Ryegrass, Italian plant response rating (0 to 100 scale, 0 is no effect, 100 is complete control)", "setting": "[4]; Preemergence", "result": 30}, {"measurement": "Plant response rating, Foxtail, Giant", "setting": "[5]; [19]", "result": 90}, {"measurement": "Foxtail, Giant plant response rating (0 to 100 scale, 0 is no effect, 100 is complete control)", "setting": "[5]; Preemergence", "result": 90}, {"measurement": "Plant response rating, Barnyardgrass", "setting": "[6]; [19]", "result": 90}, {"measurement": "Barnyardgrass plant response rating (0 to 100 scale, 0 is no effect, 100 is complete control)", "setting": "[6]; Preemergence", "result": 90}, {"measurement": "Plant response rating, Corn", "setting": "corn (Zea mays); [20]", "result": 50}, {"measurement": "Plant response rating, Corn", "setting": "corn (Zea mays); [21]", "result": 70}, {"measurement": "Plant response rating, Ragweed", "setting": "[7]; [20]", "result": 0}, {"measurement": "Plant response rating, Ragweed", "setting": "[7]; [21]", "result": 0}, {"measurement": "Plant response rating, Galium", "setting": "[8]; [20]", "result": 20}, {"measurement": "Plant response rating, Galium", "setting": "[8]; [21]", "result": 30}, {"measurement": "Plant response rating, Kochia", "setting": "Kochia (Kochia scoparia) [9]; [20]", "result": 0}, {"measurement": "Plant response rating, Kochia", "setting": "Kochia (Kochia scoparia) [9]; [21]", "result": 30}, {"measurement": "Plant response rating, Pigweed", "setting": "[10]; [20]", "result": 0}, {"measurement": "Plant response rating, Pigweed", "setting": "[10]; [21]", "result": 0}, {"measurement": "Plant response rating, Ryegrass, Italian", "setting": "[11]; [20]", "result": 30}, {"measurement": "Plant response rating, Ryegrass, Italian", "setting": "[11]; [21]", "result": 30}, {"measurement": "Plant response rating, Foxtail, Giant", "setting": "[12]; [20]", "result": 90}, {"measurement": "Plant response rating, Foxtail, Giant", "setting": "[12]; [21]", "result": 90}, {"measurement": "Plant response rating, Blackgrass", "setting": "[13]; [20]", "result": 50}, {"measurement": "Plant response rating, Blackgrass", "setting": "[13]; [21]", "result": 70}, {"measurement": "Plant response rating, Barnyardgrass", "setting": "[14]; [20]", "result": 90}, {"measurement": "Plant response rating, Barnyardgrass", "setting": "[14]; [21]", "result": 90}, {"measurement": "Plant response rating, Wheat", "setting": "[15]; [20]", "result": 20}, {"measurement": "Plant response rating, Wheat", "setting": "[15]; [21]", "result": 70}, {"measurement": "Plant response rating, Sedge, Umbrella", "setting": "[16]", "result": 0}, {"measurement": "Plant response rating, Barnyardgrass", "setting": "[17]", "result": 60}, {"measurement": "Plant response rating, Rice", "setting": "rice (Oryra sativa)", "result": 0}, {"measurement": "Plant response rating, Ducksalad", "setting": "[18]", "result": 90}]}, {"smiles": "Cc1cc(C2CNC(=O)C2C(=O)Nc2ccc(F)c(F)c2F)ccc1F", "note": "(centres unmarked) [Compound 401]", "values": [{"measurement": "Plant response rating, Ragweed", "setting": "[1]; [22]", "result": 0}, {"measurement": "Ragweed plant response rating (0 to 100 scale, 0 is no effect, 100 is complete control)", "setting": "[1]; Preemergence, 500 g ai/ha, visual injury approx. 10 d", "result": 50}, {"measurement": "Plant response rating, Kochia", "setting": "Kochia (Kochia scoparia) [2]; [22]", "result": 50}, {"measurement": "Kochia plant response rating (0 to 100 scale, 0 is no effect, 100 is complete control)", "setting": "Kochia (Kochia scoparia) [2]; Preemergence", "result": 80}, {"measurement": "Plant response rating, Pigweed", "setting": "[3]; [22]", "result": 20}, {"measurement": "Pigweed plant response rating (0 to 100 scale, 0 is no effect, 100 is complete control)", "setting": "[3]; Preemergence", "result": 50}, {"measurement": "Plant response rating, Ryegrass, Italian", "setting": "[4]; [22]", "result": 0}, {"measurement": "Ryegrass, Italian plant response rating (0 to 100 scale, 0 is no effect, 100 is complete control)", "setting": "[4]; Preemergence", "result": 40}, {"measurement": "Plant response rating, Foxtail, Giant", "setting": "[5]; [22]", "result": 80}, {"measurement": "Foxtail, Giant plant response rating (0 to 100 scale, 0 is no effect, 100 is complete control)", "setting": "[5]; Preemergence", "result": 90}, {"measurement": "Plant response rating, Barnyardgrass", "setting": "[6]; [22]", "result": 90}, {"measurement": "Barnyardgrass plant response rating (0 to 100 scale, 0 is no effect, 100 is complete control)", "setting": "[6]; Preemergence", "result": 90}, {"measurement": "Corn plant response rating", "setting": "corn (Zea mays); [23]", "result": 0}, {"measurement": "Plant response rating, Corn", "setting": "corn (Zea mays); [24]", "result": 40}, {"measurement": "Ragweed plant response rating", "setting": "[7]; [23]", "result": 30}, {"measurement": "Plant response rating, Ragweed", "setting": "[7]; [24]", "result": 50}, {"measurement": "Galium plant response rating", "setting": "[8]; [23]", "result": 50}, {"measurement": "Plant response rating, Galium", "setting": "[8]; [24]", "result": 60}, {"measurement": "Kochia plant response rating", "setting": "Kochia (Kochia scoparia) [9]; [23]", "result": 50}, {"measurement": "Plant response rating, Kochia", "setting": "Kochia (Kochia scoparia) [9]; [24]", "result": 60}, {"measurement": "Pigweed plant response rating", "setting": "[10]; [23]", "result": 0}, {"measurement": "Plant response rating, Pigweed", "setting": "[10]; [24]", "result": 40}, {"measurement": "Ryegrass, Italian plant response rating", "setting": "[11]; [23]", "result": 30}, {"measurement": "Plant response rating, Ryegrass, Italian", "setting": "[11]; [24]", "result": 60}, {"measurement": "Foxtail, Giant plant response rating", "setting": "[12]; [23]", "result": 30}, {"measurement": "Plant response rating, Foxtail, Giant", "setting": "[12]; [24]", "result": 70}, {"measurement": "Blackgrass plant response rating", "setting": "[13]; [23]", "result": 0}, {"measurement": "Plant response rating, Blackgrass", "setting": "[13]; [24]", "result": 50}, {"measurement": "Barnyardgrass plant response rating", "setting": "[14]; [23]", "result": 90}, {"measurement": "Plant response rating, Barnyardgrass", "setting": "[14]; [24]", "result": 90}, {"measurement": "Wheat plant response rating", "setting": "[15]; [23]", "result": 20}, {"measurement": "Plant response rating, Wheat", "setting": "[15]; [24]", "result": 70}, {"measurement": "Plant response rating, Sedge, Umbrella", "setting": "[16]", "result": 0}, {"measurement": "Plant response rating, Barnyardgrass", "setting": "[17]", "result": 70}, {"measurement": "Plant response rating, Rice", "setting": "rice (Oryra sativa)", "result": 25}, {"measurement": "Plant response rating, Ducksalad", "setting": "[18]", "result": 100}]}]}
